Results taken from US20250098679A1, “HERBICIDAL PYRIDONE DERIVATIVES” (SYNGENTA CROP PROTECTION AG, priority 2021, published 2025).

What was measured:
Format in all cases: in vivo
[1] = system: Ipomoea hederacea (IPOHE); test: Pre-emergence Test, Ipomoea hederacea (IPOHE); details: evaluated after 13 days
[2] = system: Amaranthus retoflexus (AMARE); test: Post-emergence Test, Amaranthus retoflexus (AMARE); parameters: key to percentage damage caused to the plant, AMARE (five-point scale): 5=81-100%, 4=61-80%, 3=41-60%, 2=21-40%, 1=0-20% damage; details: evaluated after 13 days
Summary of the method: (§1)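 Tested at 1000 g/ha unless otherwise stated. Plants were held at 24/16 °C day/night with a 14 h light period. Percent damage was read at 13 days and reported in five bands.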

[3] = system: Zea mays (ZEAMX); test: Post-emergence Test, Zea mays (ZEAMX); parameters: key to percentage damage caused to the plant, ZEAMX (five-point scale): 5=81-100%, 4=61-80%, 3=41-60%, 2=21-40%, 1=0-20% damage; details: evaluated after 13 days
Summary of the method: as §1

[4] = system: Zea mays (ZEAMX); test: Pre-emergence Test, Zea mays (ZEAMX); details: evaluated after 13 days
[5] = system: Amaranthus retoflexus (AMARE); test: Pre-emergence Test, Amaranthus retoflexus (AMARE); details: evaluated after 13 days
[6] = system: Ipomoea hederacea (IPOHE); test: Post-emergence Test, Ipomoea hederacea (IPOHE); parameters: key to percentage damage caused to the plant, IPOHE (five-point scale): 5=81-100%, 4=61-80%, 3=41-60%, 2=21-40%, 1=0-20% damage; details: evaluated after 13 days
Summary of the method: as §1

[7] = system: Echinochloa crus-galli (ECHCG); test: Post-emergence Test, Echinochloa crus-galli (ECHCG); parameters: key to percentage damage caused to the plant, ECHCG (five-point scale): 5=81-100%, 4=61-80%, 3=41-60%, 2=21-40%, 1=0-20% damage; details: 250 g/Ha, evaluated after 13 days
Summary of the method: as §1

[8] = system: Amaranthus palmeri (AMAPA); test: Pre-emergence Test, Amaranthus palmeri (AMAPA); details: evaluated after 13 days
[9] = system: Setaria faberi (SETFA); test: Post-emergence Test, Setaria faberi (SETFA); parameters: key to percentage damage caused to the plant, SETFA (five-point scale): 5=81-100%, 4=61-80%, 3=41-60%, 2=21-40%, 1=0-20% damage; details: 1000 g/ha, evaluated after 13 days
Summary of the method: as §1

[10] = system: Echinochloa crus-galli (ECHCG); test: Pre-emergence Test, Echinochloa crus-galli (ECHCG); details: evaluated after 13 days
[11] = system: Amaranthus palmeri (AMAPA); test: Post-emergence Test, Amaranthus palmeri (AMAPA); parameters: key: 5=81-100%, 4=61-80%, 3=41-60%, 2=21-40%, 1=0-20% damage; details: evaluated after 13 days
Summary of the method: as §1

SMILES	Pre-emergence Test IPOHE, percentage damage caused to the plant (five-point scale) ([1]; 250 g/Ha (*))	Pre-emergence Test IPOHE, percentage damage caused to the plant (five-point scale) ([1]; 1000 g/ha)	percentage damage caused to the plant, AMARE (five-point scale) ([2]; 250 g/Ha)	percentage damage caused to the plant, AMARE (five-point scale) ([2]; 1000 g/ha)	percentage damage caused to the plant, ZEAMX (five-point scale) ([3]; 250 g/Ha)	percentage damage caused to the plant, ZEAMX (five-point scale) ([3]; 1000 g/ha)	Pre-emergence Test ZEAMX, percentage damage caused to the plant (five-point scale) ([4]; 250 g/Ha (*))	Pre-emergence Test ZEAMX, percentage damage caused to the plant (five-point scale) ([4]; 1000 g/ha)	Pre-emergence Test AMARE, percentage damage caused to the plant (five-point scale) ([5]; 250 g/Ha (*))	Pre-emergence Test AMARE, percentage damage caused to the plant (five-point scale) ([5]; 1000 g/ha)	percentage damage caused to the plant, IPOHE (five-point scale) ([6]; 250 g/Ha)	percentage damage caused to the plant, IPOHE (five-point scale) ([6]; 1000 g/ha)	percentage damage caused to the plant, ECHCG (five-point scale) [7]	Pre-emergence Test AMAPA, percentage damage caused to the plant (five-point scale) ([8]; 250 g/Ha (*))	Pre-emergence Test AMAPA, percentage damage caused to the plant (five-point scale) ([8]; 1000 g/ha)	percentage damage caused to the plant, SETFA (five-point scale) [9]	Pre-emergence Test ECHCG, percentage damage caused to the plant (five-point scale) ([10]; 250 g/Ha (*))	Pre-emergence Test ECHCG, percentage damage caused to the plant (five-point scale) ([10]; 1000 g/ha)	percentage damage caused to the plant, AMAPA (five-point scale) ([11]; 250 g/Ha)	percentage damage caused to the plant, AMAPA (five-point scale) ([11]; 1000 g/ha)
CCOc1ccn(Cc2cc(=O)c(C(=O)O)c(-c3ccc(Cl)c(Cl)c3)n2CC)n1 [Compound 164, 2-(3,4-dichlorophenyl)-6-[(3-ethoxypyrazol-1-yl)methyl]-1-ethyl-4-oxo-pyridine-3-carboxylic acid]	4 (4=61-80%)	4 (4=61-80%)	1 (1=0-20%)	3 (3=41-60%)	4 (4=61-80%)	4 (4=61-80%)	1 (1=0-20%)	0	1 (1=0-20%)	1 (1=0-20%)	3 (3=41-60%)	4 (4=61-80%)	4 (4=61-80%)	0	1 (1=0-20%)	5 (5=81-100%)	4 (4=61-80%)	5 (5=81-100%)	1 (1=0-20%)	3 (3=41-60%)
CCn1c(Cn2ccc(OCC(F)F)n2)cc(=O)c(C(=O)O)c1-c1ccc(Cl)c(Cl)c1 [Compound 165, 2-(3,4-dichlorophenyl)-6-[[3-(2,2-difluoroethoxy)pyrazol-1-yl]methyl]-1-ethyl-4-oxo-pyridine-3-carboxylic acid]	3 (3=41-60%)	4 (4=61-80%)	1 (1=0-20%)	3 (3=41-60%)	2 (2=21-40%)	3 (3=41-60%)	1 (1=0-20%)	4 (4=61-80%)	0	1 (1=0-20%)	4 (4=61-80%)	4 (4=61-80%)	3 (3=41-60%)	0	2 (2=21-40%)	4 (4=61-80%)	4 (4=61-80%)	5 (5=81-100%)	1 (1=0-20%)	2 (2=21-40%)
CCn1c(Cn2ccc(OC(C)C)n2)cc(=O)c(C(=O)O)c1-c1ccc(Cl)c(Cl)c1 [Compound 166, 2-(3,4-dichlorophenyl)-1-ethyl-6-[(3-isopropoxypyrazol-1-yl)methyl]-4-oxo-pyridine-3-carboxylic acid]	2 (2=21-40%)	4 (4=61-80%)	0	1 (1=0-20%)	2 (2=21-40%)	4 (4=61-80%)	1 (1=0-20%)	5 (5=81-100%)	0	1 (1=0-20%)	2 (2=21-40%)	4 (4=61-80%)	4 (4=61-80%)	0	1 (1=0-20%)	5 (5=81-100%)	5 (5=81-100%)	5 (5=81-100%)	1 (1=0-20%)	1 (1=0-20%)
CCn1c(Cn2ccc(Br)n2)cc(=O)c(C(=O)O)c1-c1ccc(Cl)c(Cl)c1 [Compound 177, 6-[(3-bromopyrazol-1-yl)methyl]-2-(3,4-dichlorophenyl)-1-ethyl-4-oxo-pyridine-3-carboxylic acid]	1 (1=0-20%)	2 (2=21-40%)	1 (1=0-20%)	3 (3=41-60%)	1 (1=0-20%)	1 (1=0-20%)	0	0	0	1 (1=0-20%)	4 (4=61-80%)	3 (3=41-60%)	3 (3=41-60%)	1 (1=0-20%)	1 (1=0-20%)	4 (4=61-80%)	4 (4=61-80%)	5 (5=81-100%)	2 (2=21-40%)	2 (2=21-40%)
